According to patent EP1332756A2, “Compositions and methods for restoring a normal pattern of imprinting to cells” (priority 1996, dated 1998):
Like-named read-outs stand apart in the source and are kept apart here.

How the values were obtained:
[1] = system: cancer cells; experiment: Hollow fiber assay of in vivo cytotoxic effects; details: threshold for referral for xenograft testing
Excerpt: The compounds were additionally tested for their in vivo cytotoxic effects on cancer cells, using a hollow fiber assay as described in Hollingshead et al. (1995) Life Sci. 57:131-141, herein incorporated by reference. […] Thus, several new potential effective chemotherapeutics were identified for tumors and/or doses not taught in the literature.

[2] = system: tumor cells with LOI; experiment: In vitro effect of NCI lead compounds on LOI (allele ratio), saline as negative control; assay type: cell-based; details: for effective concentration / Allele ratio 1.0=complete LOI: in vitro; for Allele ratio 1.0=complete LOI: at the effective concentration, saline 1.0
Procedure: Based on the results showing that 5-aza-2'-deoxycytidine can restore normal imprinting to tumor cells with LOI, an analysis was performed using the drug discovery program described in Weinstein et al. (1997) Science 275:343-349, herein incorporated by reference. […] The highest correlations were as follows: 127716, 619003, 626883, 624646, 145118, 1850512, 626884, 626886, 622810, 176889, 622616, 620358, 619948, 622461, 624645, 15309, 638737, 294734, 112152, 153174 204816, 79037, 628082, 620319 (NCI reference numbers). These are considered lead compounds to determine whether they will restore normal imprinting or could be chemically modified to do so.
As a first test of this approach, the in vitro effect of 12 of these compounds were analyzed with saline as a negative control.

[3] = system: H19; experiment: Allele-specific methylation of H19 (Hpa II digestion, PCR, Alu I); assay type: cell-based, human; details: Hpa II digestion before PCR (Fig. 2B)
Procedure: (§1) Analysis of DNA Methylation. For quantitative analysis of DNA methylation, genomic DNA was prepared as described (Rainier et al. (1993) Nature 362:747-749), and Southern analysis of methylation of the H19 promoter CpG island was performed as described (Reik et al. (1994) Hum. Mol. Genet. 4:2379-2385). Filters were hybridized with the 1.8 kb Pst I fragment of H19, which detects imprint-specific methylation (Steenman et al. (1994) Nature Genet. 7:433-439). For analysis of allele-specific methylation, 1 µg DNA was digested with BamH I or with BamH I plus Hpa
After digestion, enzymes were inactivated by heating to 100° for 10 min. 50 ng digested DNA was added to the PCR reaction mix in Buffer F (Invitrogen), containing primers HP1 (5'-TACAACC-ACTGCACTACCTG-3') and H3 (5'-[…]-3') (Hashimoto et al. (1995) Nat. Genet. 9:109-110). One initial cycle (94°C, 4 min.) was followed by 28 cycles of 94°C, 1 min., 60°C, 1 min., 72° C, 1 min. PCR products (227 bp) were digested with Alu I, electrophoresed on 3% Nusieve/1% agarose gels, transferred to Hybond-N+ membranes (Arnersham), and hybridized with an internal oligonucleotide probe HP2 (5'-[…]-3'), and then quantified with a PhosphorImager (Molecular Dynamics). […]

[4] = system: IGF2; experiment: IGF2 methylation after 5-azaCdR treatment; assay type: cell-based, human; details: data not shown
Procedure: as §1

[5] = system: H19; experiment: Quantitative H19 expression in tumor cells with LOI (Northern blot, PhosphorImager); assay type: cell-based; details: Homo sapiens, 24 h, read-out: increase in H19 expression
Procedure: (§2) Cell Culture and Treatment With 5-azaCdR. JEG-3 human choriocarcinoma and COLO-205 human colon adenocarcinoma cell lines were obtained from ATTC. Cells were cultured in RPMI 1640, 10% fetal calf serum, 5% CO2, with antibiotics. 10^4-10^5 cells in 6 cm dishes were treated with 0.3-10 µM 5-azaCdR for 24 hours. Cultures were washed in Hank's buffered saline solution and grown to confluence. Concentrations of 0.3-3.0 µM caused minimal cytotoxicity (0-30%).
Analysis of Gene Expression. For quantitative analysis of gene expression, total RNA was isolated as described (Chomczynski, P. and Sacchi, N. (1987) Anal. Biochem. 162:156-159), and 10 µg was electrophoresed in 1.2% agarose gels containing formaldehyde, and was transferred to Hybond-N + membranes (Amersham) and hybridized as described with H19 and IGF2 probes (Steenrnan et al. (1994) Nature Genet. 7:433-439). Hybridization with GAPDH was used as a control for RNA loading. For analysis of allele-specific expression, 0.5 µg RNA was treated with DNase I (Boehringer Mannheim), heated to 95°C for 7 minutes, and RT-PCR was performed as described for both IGF2 and H19 (Rainier et al. (1993) Nature 362:747-749), although nested PCR using primers HP1 and HP2 (Hashimoto et al. (1995) Nat. Genet. 9:109-110) was performed for H19 analysis. PCR products were digested with either Apa I (for IGF2 analysis) or Alu I (for H19 analysis) as described (Tadokoro et al. (1991) Nucleic Acids Res. 19:6967), and electrophoresed on 4% Nusieve-agarose (3:1) gels. Each sample was analyzed in duplicate in the presence and absence of reverse transcriptase to exclude DNA contamination. Gels were blotted and hybridized with a ^32P-labeled internal specific oligonucleotide probe (Rainier et al. (1993) Nature 362:747-749), and quantified with a PhosphorImager (Molecular Dynamics).

[6] = system: H19 promoter CpG island; experiment: Southern analysis of methylation of the H19 promoter CpG island (Pst I and Sma I); assay type: cell-based, human
Procedure: as §1
In order to determine whether treatment with 5-azaCdR altered methylation of this imprint-specific region, cells were digested with Pst I and Sma I, as described (Reik et al. (1994) Hum. Mol. Genet. 3:1297-1301). Normal cells show approximately 50% methylation, since the paternal allele is methylated and the maternal allele is unmethylated (Steenman et al. (1994) Nature Genet. 7:433-439; Moulton et al. (1994) Nature Genet. 7:440-447; Reik et al. (1994) Hum. Mol. Genet. 3:1297-1301). Cells with LOI show increased methylation, reflecting abnormal methylation of the maternal allele (Steenman et al. (1994) Nature Genet. 7:433-439; Moulton et al. (1994) Nature Genet. 7:440-447; Reik et al. (1994) Hum. Mol. Genet. 3:1297-1301). […]

[7] = Cytotoxicity of 24 hour 5-azaCdR treatment in cell culture; assay type: cell-based; details: human, jeg-3 and colo-205 cells, Concentrations of 0.3-3.0 µM
Procedure: as §2

[8] = system: H19; experiment: Allele-specific expression of H19 in tumor cells with LOI (RT-PCR, Alu I digestion); assay type: cell-based, human; details: JEG-3 cells
Procedure: as §2
(§3) Analysis of Gene Expression. For quantitative analysis of gene expression, total RNA was isolated as described (Chomczynski, P. and Sacchi, N. (1987) Anal. Biochem. 162:156-159), and 10 µg was electrophoresed in 1.2% agarose gels containing formaldehyde, and was transferred to Hybond-N + membranes (Amersham) and hybridized as described with H19 and IGF2 probes (Steenrnan et al. (1994) Nature Genet. 7:433-439). Hybridization with GAPDH was used as a control for RNA loading. […] Each sample was analyzed in duplicate in the presence and absence of reverse transcriptase to exclude DNA contamination. Gels were blotted and hybridized with a ^32P-labeled internal specific oligonucleotide probe (Rainier et al. (1993) Nature 362:747-749), and quantified with a PhosphorImager (Molecular Dynamics).

[9] = system: IGF2; details: normal human brain cells (Hu et al.); cited from earlier work
[10] = system: IGF2; details: mouse cells with maternal disomy for chromosome 7 (Eversole-Cire et al.); cited from earlier work
[11] = system: IGF2; experiment: Allele-specific expression of IGF2 in tumor cells with LOI (RT-PCR, Apa I digestion); assay type: cell-based, human
Procedure: as §2, §3

[12] = system: Cells having LOI, (Group A); experiment: NCI database search for compounds effective against cell lines with LOI (Group A) but not those without LOI (Group B); details: lead compounds still to be tested

| Compound | total effectiveness score > 20 or an in vivo cell kill effect seen directly [1] | effective concentration [2] | Allele ratio 1.0=complete LOI [2] | other results |
| --- | --- | --- | --- | --- |
| Methyl-13-hydroxy-15-oxokaurenoate [compound 620358] | scored above the threshold for referral for xenograft testing | 10^-4M | 2.6 | alteration in imprinting and/or cytotoxic effects ([2]; additional drugs tested): at least some alteration in imprinting and/or cytotoxic effects |
| Nc1ncn([C@H]2C[C@H](O)[C@@H](CO)O2)c(=O)n1 [5-azaCdR, 5-aza-2'-deoxycytidine] | scored above the threshold for referral for xenograft testing | – | – | allele specificity of altered H19 methylation [3]: one allele was preferentially affected; IGF2 methylation [4]: not affected; fold induction at 1 µM ([5]; COLO-205 cells, 1.0 µM (data not shown)): 20; fold induction at 0.3 µM ([5]; JEG-3 cells, 0.3 µM): 30; fold induction at 1 µM ([5]; JEG-3 cells, 1.0 µM): 50; changes in DNA methylation of the H19 CpG island ([6]; COLO-205 (data not shown)): reproducible; methylation of the H19 CpG island ([6]; after treatment with 0.3 or 1.0 µM (Fig. 2A), normal cells approximately 50%): approximately 50%; cytotoxicity at 24 h [7]: 0 to 30%; allele-specific expression of H19 [8]: monoallelic expression of the allele containing the Alu I polymorphic site; allelic expression of IGF2 [9]: switched IGF2 from a pattern of preferential expression of one allele to equal biallelic expression; expression of the maternal IGF2 gene [10]: epigenetic activation of the normally silent maternal IGF2 gene; allelic expression of IGF2 ([11]; COLO-205 colorectal carcinoma cells (data not shown)): a switch from biallelic to predominately monoallelic expression of IGF2; allelic expression of IGF2 ([11]; JEG-3 cells, single 24 hr treatment with increasing doses (0.3, 0.6, 1.0 µM)): unequal expression of the two IGF2 alleles, with preferential expression of the allele lacking the Apa I polymorphic site |
| aspiculamycin HCL [200692-A] | – | – | – | Predicted concentration [12]: 10^-2M |
| gndimacrin [252940-S] | – | – | – | Predicted concentration [12]: 10^-4M |
| O=C1ON(Cc2ccccc2)C(c2ccccc2)N1c1ccccc1 (stereo not drawn) [compound 624645] | – | 10^-4M | 1.8 | – |
| C/C=C1/C(=O)O[C@]23C=C[C@@H]4C(C(=O)OC)=CO[C@H](O[C@@H]12)[C@@H]43 [compound 112152, plumericine] | scored above the threshold for referral for xenograft testing | 10^-3M | 1.2 | – |
| C#CC[C@@]12CC(=O)C[C@@H]1CCC1(C2)OCCO1.C#CC[C@]12CC(=O)CC[C@H]1CC(=O)C2 [compound 619948] | – | 10^-4M | 1.8 | – |
| Nc1ccccc1 [compound 176889, benzenamine] | – | – | 3.7 | alteration in imprinting and/or cytotoxic effects ([2]; additional drugs tested): at least some alteration in imprinting and/or cytotoxic effects |
| CC(=O)O[C@@H]1[C@@H](C)/C=C/C(C)(C)[C@H](OC(C)=O)C[C@@H](OC(C)=O)/C(C)=C/[C@H]2[C@@H](OC(=O)c3ccccc3)[C@@H](C)C[C@]12OC(C)=O [compound 666860, euphornin D] | – | – | – | Predicted concentration [12]: 10^-4M |
| lankacyclin [compound 145118] | – | 10^-4M | 1.8 | alteration in imprinting and/or cytotoxic effects ([2]; additional drugs tested): at least some alteration in imprinting and/or cytotoxic effects |
| CC(C)/C(Cl)=N\OC(=O)NNc1ccccc1 [compound 682841] | – | – | – | Predicted concentration [12]: 10^-4M |
| cis-CCNU [compound 153174] | – | 10^-4M | 1.6 | – |
| Blue Platinum uracil [compound 180512] | – | 10^-2M | 45.0 | alteration in imprinting and/or cytotoxic effects [2]: at least some alteration in imprinting and/or cytotoxic effects |
| CC1=CC(=O)C(C)=CC1=O [compound 15309, phlorone] | scored above the threshold for referral for xenograft testing | 10^-3M | 1.3 | – |
| COc1nc(NC2OC(CO)C(O)C(O)C2O)c(N)c(=O)[nH]1 (stereo not drawn) [compound 624646] | scored above the threshold for referral for xenograft testing | 10^-4M | 2.2 | – |
